US8591892B2, “FTY720 increases CD74 expression and sensitizes cancer cells to anti-CD74 antibody-mediated cell death” (The Ohio State University, priority 2011, dated 2013)

How the values were obtained:
four MCL cell lines = assay: Cell viability by annexin-V/PI staining and flow cytometry, four lines together; format: cell-based, human; conditions: Jeko-1, Z-138 and UPN-1 cell lines, 24 hours
Method: FIG. 4. FTY720 sensitizes MCL cell lines and primary patient tumor cells to milatuzumab-mediated cytotoxicity. (A) Four MCL cell lines and primary cells from 6 patients were treated with FTY720 and/or milatuzumab plus cross-linking antibodies at the indicated concentrations. (B) Patient characteristics. (C) Individual patient responses. (D) Representative histograms summarizing patient responses. Cell death was determined by annexin V/PI staining and flow cytometry at 24 hours. Data are shown as the percentage of annexin V−/PI− cells (live cells) and are normalized to untreated controls.
To assess lysosomal volume, FTY720 treated cells were incubated with LYSOTRACKER™ green DND-26. To assess lysosomal membrane permeability, FTY720 treated cells were incubated with acridine orange (MOLECULAR PROBES; INVITROGEN). For analysis of cell viability, MCL cell lines (0.5×10^6/ml) and primary cells (1×10^6/ml) were treated with FTY720, milatuzumab, and the combination of both. […] Cell viability was measured at 24 hours by dual staining with annexin-V FITC and propidium iodide (PI). A total of 10,000 events were collected and analyzed using WinMDI.
The in vitro survival of four MCL cell lines treated with FTY720, milatuzumab in the presence of a cross-linking antibody, and the combination of FTY720 and milatuzumab was determined at 24 hours by annexin-V/PI staining and flow cytometry. […]

FSCCL = assay: Flow cytometry of CD74, HLA-DR, CEACAM5 with directly labeled MAbs, with and without IFN-γ; format: cell-based
Method: (§1) Expression of CD74, HLA-DR, and carcinoembryonic antigen (CEACAM5) was determined in untreated cells and cells exposed to 200 U of IFN-γ for 48 h by flow cytometry. Cells were stained with directly labeled MAbs in comparison to a directly labeled human IgG control. Antibodies were labeled using ALEXA FLUOR® 488 (Invitrogen, Carlsbad, Calif.). For determination of cytoplasmic antigen expression, cells were permeabilized prior to staining using the BD CYTOFIX/CYTOPERM™ kit (BD Biosciences, San Jose, Calif.).

Moser = assay: as above; format: cell-based
Method: as §1

HT29 = assay: as above; format: cell-based
Method: as §1

Capan-1 = assay: as above; format: cell-based
Method: as §1

U87 = assay: as above; format: cell-based
Method: as §1

Panc-1 = assay: as above; format: cell-based
Method: as §1

BxPC-3 = assay: as above; format: cell-based
Method: as §1

Aspc-1 = assay: as above; format: cell-based
Method: as §1

CAG = assay: as above; format: cell-based
Method: as §1

TU118 = assay: as above; format: cell-based
Method: as §1

RL = assay: as above; format: cell-based
Method: as §1

LS174T = assay: as above; format: cell-based
Method: as §1

Lovo = assay: as above; format: cell-based
Method: as §1

KMS11 = assay: as above; format: cell-based
Method: as §1

U118 = assay: as above; format: cell-based
Method: as §1

[1] = multiple myeloma patients, 1.5 mg/kg twice weekly for 4 weeks; cited from earlier work
[2] = test system: Jeko cells engrafted in SCID mice; assay: Preclinical model of human MCL in SCID mice, survival; format: in vivo, mouse; conditions: n=10/group, from day 15; FTY720 5 mg/kg i.p. daily 2 weeks; antibodies 15 mg/kg i.p. every three days
Method: Evaluation of in vivo therapeutic activity of FTY720 and milatuzumab in the preclinical MCL model. SCID mice were injected i.v. with 40×10^6 JeKo cells and observed daily for signs of tumor burden.
Six to eight-week old female SCID mice (cb17 scid/scid) were purchased from Taconic Farms (Hudson, N.Y.) and maintained in pathogen-free, isolation cages. All animals were depleted of murine NK cells with intra-peritoneal (i.p.) injections of 0.2 mg of rat anti-mouse interleukin-2 receptor β monoclonal antibody (TMβ1) 1 day prior to engraftment with human tumor cell lines and then every week. Forty-eight hours post intravenous injection of 40×10^6 Jeko cells via tail vein, 50 mice were randomly distributed into 10 cages. Animals in groups of ten were treated starting at day 15 after engraftment. […] The third group was treated with FTY720 (5 mg/kg) every day for 2 weeks via i.p. The fourth group received milatuzumab (15 mg/kg) every three days, via i.p. injection. The fifth group received the combination of FTY720 and milatuzumab. Animals were monitored daily for signs of tumor burden, including hind limb paralysis, respiratory distress, weight loss, ruffled coat, and distended abdomen. Body weight was measured weekly for the first 3 weeks and then daily. […]

## milatuzumab: fully humanized monoclonal antibody specific for CD74
Four MCL cell lines
  activity as single agents: only modest activity
FSCCL; FSCCL
  % change of cell surface expression with IFNγ: 32.8%
  % change of cytoplasmic expression with IFNγ: 58.5%
FSCCL; FSCCL + IFNγ 200 U, 48 h
  Cell surface expression (staining with directly labeled MAb): 19.0
FSCCL; FSCCL, without IFN-γ
  Cell surface expression (staining with directly labeled MAb): 14.3
Moser; Moser
  % change of cell surface expression with IFNγ: 16.3%
  % change of cytoplasmic expression with IFNγ: 86.1%
Moser; Moser + IFNγ 200 U, 48 h
  Cell surface expression (staining with directly labeled MAb): 4.8
Moser; Moser, without IFN-γ
  Cell surface expression (staining with directly labeled MAb): 4.1
HT29; HT29
  % change of cell surface expression with IFNγ: 141.1%
  % change of cytoplasmic expression with IFNγ: 1766.6%
HT29; HT29 + IFNγ 200 U, 48 h
  Cell surface expression (staining with directly labeled MAb): 8.3
HT29; HT29, without IFN-γ
  Cell surface expression (staining with directly labeled MAb): 3.4
Capan-1; Capan + IFNγ 200 U, 48 h
  Cell surface expression (staining with directly labeled MAb): 11.1
Capan-1; Capan-1
  % change of cell surface expression with IFNγ: 152.4%
  % change of cytoplasmic expression with IFNγ: 561.2%
Capan-1; Capan-1, without IFN-γ
  Cell surface expression (staining with directly labeled MAb): 4.4
U87; U87
  % change of cell surface expression with IFNγ: 75.6%
  % change of cytoplasmic expression with IFNγ: 158.8%
U87; U87 + IFNγ 200 U, 48 h
  Cell surface expression (staining with directly labeled MAb): 9.5
U87; U87, without IFN-γ
  Cell surface expression (staining with directly labeled MAb): 5.4
Panc-1; Panc-1
  % change of cell surface expression with IFNγ: 9.4%
  % change of cytoplasmic expression with IFNγ: 208.7%
Panc-1; Panc-1 + IFNγ 200 U, 48 h
  Cell surface expression (staining with directly labeled MAb): 4.9
Panc-1; Panc-1, without IFN-γ
  Cell surface expression (staining with directly labeled MAb): 4.5
BxPC-3; BxPC-3
  % change of cell surface expression with IFNγ: 142.2%
  % change of cytoplasmic expression with IFNγ: 1763.5%
BxPC-3; BxPC-3 + IFNγ 200 U, 48 h
  Cell surface expression (staining with directly labeled MAb): 6.2
BxPC-3; BxPC-3, without IFN-γ
  Cell surface expression (staining with directly labeled MAb): 2.6
Aspc-1; Aspc-1
  % change of cell surface expression with IFNγ: 121.3%
  % change of cytoplasmic expression with IFNγ: 1451.5%
Aspc-1; Aspc-1 + IFNγ 200 U, 48 h
  Cell surface expression (staining with directly labeled MAb): 7.3
Aspc-1; Aspc-1, without IFN-γ
  Cell surface expression (staining with directly labeled MAb): 3.3
CAG; CAG
  % change of cell surface expression with IFNγ: −5.4%
  % change of cytoplasmic expression with IFNγ: 19.8%
CAG; CAG + IFNγ 200 U, 48 h
  Cell surface expression (staining with directly labeled MAb): 39.2
CAG; CAG, without IFN-γ
  Cell surface expression (staining with directly labeled MAb): 41.5
TU118; TU118
  % change of cell surface expression with IFNγ: 167.8%
  % change of cytoplasmic expression with IFNγ: 374.6%
TU118; TU118 + IFNγ 200 U, 48 h
  Cell surface expression (staining with directly labeled MAb): 19.2
TU118; TU118, without IFN-γ
  Cell surface expression (staining with directly labeled MAb): 7.17
RL; RL
  % change of cell surface expression with IFNγ: 23.8%
  % change of cytoplasmic expression with IFNγ: 3.7%
RL; RL + IFNγ 200 U, 48 h
  Cell surface expression (staining with directly labeled MAb): 25.0
RL; RL, without IFN-γ
  Cell surface expression (staining with directly labeled MAb): 20.2
LS174T; LS174T
  % change of cell surface expression with IFNγ: −11.3%
  % change of cytoplasmic expression with IFNγ: 112.7%
LS174T; LS174T + IFNγ 200 U, 48 h
  Cell surface expression (staining with directly labeled MAb): 5.2
LS174T; LS174T, without IFN-γ
  Cell surface expression (staining with directly labeled MAb): 5.9
Lovo; Lovo
  % change of cell surface expression with IFNγ: 173.7%
  % change of cytoplasmic expression with IFNγ: 756.0%
Lovo; Lovo + IFNγ 200 U, 48 h
  Cell surface expression (staining with directly labeled MAb): 9.2
Lovo; Lovo, without IFN-γ
  Cell surface expression (staining with directly labeled MAb): 3.4
KMS11; KMS11
  % change of cell surface expression with IFNγ: 14.0%
  % change of cytoplasmic expression with IFNγ: −1.9%
KMS11; KMS11 + IFNγ 200 U, 48 h
  Cell surface expression (staining with directly labeled MAb): 5.1
KMS11; KMS11, without IFN-γ
  Cell surface expression (staining with directly labeled MAb): 4.4
U118; U118
  % change of cell surface expression with IFNγ: 160.9%
  % change of cytoplasmic expression with IFNγ: 428.2%
U118; U118 + IFNγ 200 U, 48 h
  Cell surface expression (staining with directly labeled MAb): 18.3
U118; U118, without IFN-γ
  Cell surface expression (staining with directly labeled MAb): 7.0
[1]
  peak levels: 10 to 20 µg/mL
[2]
  median survival: 33.5 days
